Source: US20240190872A1, “FABI INHIBITORS FOR GRAM-NEGATIVE PATHOGENS” (THE BOARD OF TRUSTEES OF THE UNIVERSITY OF ILLINOIS, priority 2021, published 2024)
In brackets after ≈: the same amount, converted by molar mass.

Legend:
IMR90 = test: Toxicity screen against mammalian cell lines (72 h), Alamar Blue; format: cell-based
Protocol: Cell culture. IMR90 cells were obtained from ATCC. IMR90 cells were grown in EMEM with 10% fetal bovine serum (Gemini Benchmark, Cat# 100-106), 100 U/mL penicillin, and 100 μg/mL streptomycin. All cells were cultured at 37° C. in a 5% CO2 environment. Media was prepared by the Univeristy of Illinois School of Chemical Sciences Cell Media Facility. Sex and age of cell lines: IMR90 ([…]).
Cell viability. Cells seeded (IMR90: 5,000 cells/well) a 96-well plate (Greiner Bio-One, Cat# 655180) and were allowed to attach overnight. […] Raptinal (100 μM) was used as a dead control. After 24 h post-treatment, media was exchanged with compound-free media. […] Stock Alamar Blue solution [10 μL, 440 μM resazurin (Sigma-Aldrich, Cat# R7017) in sterile 1×PBS] was added to each well, and plate was incubated […]. Conversion of Alamar Blue was measured with plate reader (SpectraMax M3, Molecular Devices) by fluorescence (ex 555 nm, em 585 nm, cutoff 570 nm, autogain). Percent death was determined by normalizing to DMSO-treated cells and raptinal-treated cells.

Hep G2 = test: Toxicity screen against mammalian cell lines (72 h); format: cell-based
E. coli ΔtolC (JW5503) = format: cell-based; conditions: efflux deficient E. coli ΔtolC
Protocol: (§1) The compounds synthesized, shown in Table 1, were evaluated against Gram-positive and Gram-negative reference strains (S. aureus 29213 and E. coli MG1655, respectively), as well as an efflux deficient E. coli strain (ΔtolC, JW5503).
(§2) Bacterial strains. S. aureus ATCC 29213, E. coli MG1655, E. coli BAA-2340, E. coli BAA-2469, E. coli BAA-2471, E. cloacae BAA-2341, E. cloacae BAA-2468, K. pneumoniae BAA-1705, K. pneumoniae BAA-2342, K. pneumoniae BAA-2470, K. pneumoniae BAA-2472, and K. pneumoniae BAA-2473 were obtained from ATCC. E. coli JW5503 and E. coli JW3596 were obtained from the KEIO Collection. E. cloacae ATCC 29893 was provided by W. van der Donk (UIUC). E. coli AR-0346, E. coli AR-0349, E. coli AR-0493, E. coli AR-0495, and K. pneumoniae AR-0347 were obtained from the CDC and FDA AR Isolate Bank. E. coli F20987, E. coli M66623, E. cloacae S28901.1, K. pneumoniae M14723, K. pneumoniae M67198, K. pneumoniae M67297, K. pneumoniae S20595, K. pneumoniae S47889, A. baumannii W41979, A. baumannii F19521, A. baumannii M13100, and A. baumannii WO22 were obtained from the University of Illinois Chicago Medical School. A. baumannii KB304, A. baumannii KB343, and A. baumannii KB357 were provided by J. Quale.
(§3) Antimicrobial susceptibility tests. Susceptibility testing was performed in biological triplicate, using the micro-dilution broth method as outlined by the Clinical and Laboratory Standards Institute. Bacteria were cultured with cation-adjusted Muller-Hinton broth (Sigma-Aldrich, Cat# 90922) in round-bottom 96-well plates (Corning, Cat# 3788). Human serum (pooled gender, 0.2 μm filtered) was purchased from BioIVT (Hicksville, NY).

E. coli MG1655 = test: Antimicrobial susceptibility test (MIC); format: cell-based; conditions: E. coli MG1655
Description: as §2, §3

K. pneumoniae BAA 2472 = test: microbe, parasite or virus in culture; format: cell-based; conditions: clinical isolate
Protocol: as §1, §2, §3

K. pneumoniae AR 0113 = test: microbe, parasite or virus in culture; format: cell-based; conditions: clinical isolate
Protocol: as §3

A. baumannii AR 0299 = test: microbe, parasite or virus in culture; format: cell-based; conditions: clinical isolate
Protocol: as §3

A. baumannii AR 0273 = test: microbe, parasite or virus in culture; format: cell-based; conditions: clinical isolate
Protocol: as §3

K. pneumoniae AR 0560 = test: microbe, parasite or virus in culture; format: cell-based; conditions: clinical isolate
Protocol: as §3

K. pneumoniae AR 0066 = test: microbe, parasite or virus in culture; format: cell-based; conditions: clinical isolate
Protocol: as §3

A. baumannii AR 0033 = test: microbe, parasite or virus in culture; format: cell-based; conditions: clinical isolate
Protocol: as §3

E. coli AR 0085 = test: microbe, parasite or virus in culture; format: cell-based; conditions: clinical isolate
Protocol: as §3

A. baumannii AR 0313 = test: microbe, parasite or virus in culture; format: cell-based; conditions: clinical isolate
Protocol: as §3

E. coli AR 0048 = test: microbe, parasite or virus in culture; format: cell-based; conditions: clinical isolate
Protocol: as §3

S. aureus ATCC 29213 = test: Antimicrobial susceptibility test (MIC), micro-dilution broth; format: cell-based; conditions: S. aureus ATCC 29213
Description: as §2, §3

in vivo = conditions: female, C57BL/6, mouse, in vivo, ip
Protocol: Mouse MTD of Debio-1452-NH3. The protocol was approved by the IACUC at the University of Illinois at Urbana-Champaign (Protocol Number:16144). In these studies, 10- to 12-week-old female C57BL/6 mice purchased from Charles River were used. The maximum tolerate dose (MTD) of single compound was determined first. Debio-1452 amine analogues were formulated in 20% sulfobutyl ether β-cyclodextrin in sterile water. Debio-1452-NH3 (1), and compounds 2 and 3 were given by IP injection and mice were monitored for signs of toxicity for 2 weeks (single dose). For multiple dose, the compound was given by daily IP for 5 consecutive days and mice were monitored for signs of toxicity for 1 month. MTD was the highest dosage with acceptable toxicity (e.g. <20% weight loss). Single dose MTDs were initially determined. […] The MTD of Debio-1452-NH3 (1) was used to inform the dosing schedule used in subsequent efficacy studies.

A. baumannii FabI = A. baumannii FabI (Acinetobacter baumannii, UniProt D0CAD5); test: biochemical; conditions: purified FabI, apparent inhibition constant; read-out: A. baumannii FabI Ki^app
Chain of A. baumannii FabI (D0CAD5 1-288): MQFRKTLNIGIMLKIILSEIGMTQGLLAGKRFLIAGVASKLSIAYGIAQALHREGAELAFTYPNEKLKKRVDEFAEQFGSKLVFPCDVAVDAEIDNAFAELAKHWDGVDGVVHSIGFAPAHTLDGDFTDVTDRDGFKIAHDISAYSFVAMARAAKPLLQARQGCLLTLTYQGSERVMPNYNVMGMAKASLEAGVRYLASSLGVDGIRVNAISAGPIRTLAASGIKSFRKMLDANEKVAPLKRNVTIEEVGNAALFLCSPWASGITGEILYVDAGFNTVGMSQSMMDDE
Protocol: Mode of Action. To probe the effects of varying ring systems and amine placement on FabI target engagement, the apparent inhibition constants (Ki^app) for select compounds were determined using purified FabI. The goal of these studies was two-fold, to comparatively assess fabimycin, Debio-1452-NH3, and Debio-1452, and to also assess differential activity against the E. coli and A. baumannii versions of FabI. FabI from E. coli and A. baumannii were recombinantly expressed and purified, and the ability for each compound to inhibit the activity of these enzymes was evaluated using a standard FabI enzyme assay.
In vitro FabI inhibition assay. NADH (Sigma-Aldrich, Cat# N8129) and crotonoyl-CoA (Sigma-Aldrich, Cat# 28007) were both diluted into activity buffer [100 mM potassium glutamate (pH 7.8)], and working solution was dispensed into two columns of round-bottom 96-well plate (330 μL per well). Inhibitors, dissolved in DMSO at 200× final concentration, were added to each well via multichannel pipette (2.48 μL per well). After thorough mixing, this mixture was transferred to UV-transparent plate (UV-STAR half-area 96-well plate, Greiner Bio-One, Cat#675801, 100 μL per well, three technical replicates per inhibitor concentration). Plate was placed in plate-reader (SpectraMax 190, Molecular Devices) under temperature control (25° C.), and temperature was allowed to equilibrate. Fresh aliquot of enzyme from −80° C. was thawed on ice and diluted in activity buffer. Enzyme working solution was added to plate (50 μL per well, 20 nM enzyme final). After shaking for 5 s, reaction progress was monitored by absorbance at 340 nm every 15 s for 90 min. Linear portion of reaction progress curve was fit using plate-reader software (SoftMax Pro 7.0). Percent activity was calculated relative to DMSO-only and no-enzyme controls in each plate. Percent activity curves were fit to Morrison's quadratic using Graphpad Prism 6.0 to obtain apparent Ki.

Row | Compound | IMR90 % Cell Death (IMR90; 30 μM) | IMR90 % Cell Death (IMR90; 100 μM) | Hep G2 % Cell Death (Hep G2; 30 μM) | Hep G2 % Cell Death (Hep G2; 100 μM) | MIC E. coli ΔtolC (E. coli ΔtolC (JW5503)) | MIC E. coli MG1655 (E. coli MG1655) | MIC K. pneumoniae BAA 2472 (K. pneumoniae BAA 2472) | MIC K. pneumoniae AR 0113 (K. pneumoniae AR 0113) | MIC A. baumannii AR 0299 (A. baumannii AR 0299) | MIC A. baumannii AR 0273 (A. baumannii AR 0273) | MIC K. pneumoniae AR 0560 (K. pneumoniae AR 0560) | MIC K. pneumoniae AR 0066 (K. pneumoniae AR 0066) | MIC A. baumannii AR 0033 (A. baumannii AR 0033) | MIC E. coli AR 0085 (E. coli AR 0085) | MIC A. baumannii AR 0313 (A. baumannii AR 0313) | MIC E. coli AR 0048 (E. coli AR 0048) | MIC S. aureus 29213 (S. aureus ATCC 29213) | MTD at 2 weeks (in vivo) | Ki (A. baumannii FabI)
1 | Cc1c(CN(C)C(=O)/C=C/c2ccc3c(c2)CCC(N)C(=O)N3)oc2ccccc12 (stereo not drawn) | 8 ± 3% | 67 ± 2% | 12 ± 5% | 58 ± 10% |  |  |  |  |  |  |  |  |  |  |  |  |  |  | 
2 | Cc1c(CN(C)C(=O)C=Cc2cnc3c(c2)CC2(CC(N)C2)C(=O)N3)oc2ccccc12 (mixture of isomers) [(±)-6] |  |  |  |  | 0.062 µg/mL | 4 µg/mL | 8 µg/mL | 16 µg/mL | 16 µg/mL | 16 µg/mL | 8 µg/mL | 8 µg/mL | 16 µg/mL | 16 µg/mL | 32 µg/mL | 16 µg/mL | 0.016 µg/mL |  | 
3 | Cc1c(CN(C)C(=O)/C=C/c2cnc3c(c2)CCC(CN)C(=O)N3)oc2ccccc12 (racemic) [(±)-12] |  |  |  |  | 0.125 µg/mL (≈ 0.299 µM) | 8 µg/mL (≈ 19.1 µM) | 32 µg/mL (≈ 76.5 µM) | 32 µg/mL (≈ 76.5 µM) | 32 µg/mL (≈ 76.5 µM) | 32 µg/mL (≈ 76.5 µM) | 16 µg/mL (≈ 38.2 µM) | 32 µg/mL (≈ 76.5 µM) | 16 µg/mL (≈ 38.2 µM) | 8 µg/mL (≈ 19.1 µM) | >32 µg/mL | 16 µg/mL (≈ 38.2 µM) | 0.031 µg/mL (≈ 0.0741 µM) |  | 
4 | Cc1c(CN(C)C(=O)/C=C/c2cnc3c(c2)CC(CCN)C(=O)N3)oc2ccccc12.Cl (stereo not drawn) [Compound 3, (E)-3-(6-(aminoethyl)-7-oxo-5,6,7,8-tetrahydro-1,8-naphthyridin-3-yl)-N-methyl-N-((3-methylbenzofuran-2-yl)methyl)acrylamide hydrochloride] |  |  |  |  |  |  |  |  |  |  |  |  |  |  |  |  |  | 100 mg/kg | 
5 | Cc1c(CN(C)C(=O)/C=C/c2cnc3c(c2)CC2(CNC2)C(=O)N3)oc2ccccc12 [Compound 5] |  |  |  |  | 0.031 µg/mL (≈ 0.0744 µM) | 4 µg/mL (≈ 9.6 µM) | 8 µg/mL (≈ 19.2 µM) | 16 µg/mL (≈ 38.4 µM) | 16 µg/mL (≈ 38.4 µM) | 8 µg/mL (≈ 19.2 µM) | 16 µg/mL (≈ 38.4 µM) | 8 µg/mL (≈ 19.2 µM) | 8 µg/mL (≈ 19.2 µM) | 4 µg/mL (≈ 9.6 µM) | 16 µg/mL (≈ 38.4 µM) | 8 µg/mL (≈ 19.2 µM) | 0.016 µg/mL (≈ 0.0384 µM) |  | 
6 | Cc1c(CN(C)C(=O)/C=C/c2cnc3c(c2)CC(CCNC(=O)OC(C)(C)C)C(=O)N3)oc2ccccc12 (stereo not drawn) [Compound 10] |  |  |  |  | 0.031 µg/mL (≈ 0.0598 µM) | 8 µg/mL (≈ 15.4 µM) | 16 µg/mL (≈ 30.9 µM) | 32 µg/mL (≈ 61.7 µM) | 8 µg/mL (≈ 15.4 µM) | 8 µg/mL (≈ 15.4 µM) | >32 µg/mL | 32 µg/mL (≈ 61.7 µM) | 16 µg/mL (≈ 30.9 µM) | 8 µg/mL (≈ 15.4 µM) | 16 µg/mL (≈ 30.9 µM) | 8 µg/mL (≈ 15.4 µM) | 0.002 µg/mL (≈ 0.00386 µM) |  | 
7 | Cc1c(CN(C)C(=O)/C=C/c2cnc3c(c2)CC2(CNC2)C(=O)N3)oc2ccccc12 [drawing 106] |  |  |  |  |  |  | 8 µg/mL (≈ 19.2 µM) | 16 µg/mL (≈ 38.4 µM) | 16 µg/mL (≈ 38.4 µM) | 16 µg/mL (≈ 38.4 µM) | 16 µg/mL (≈ 38.4 µM) | 8 µg/mL (≈ 19.2 µM) | 8 µg/mL (≈ 19.2 µM) | 4 µg/mL (≈ 9.6 µM) | 16 µg/mL (≈ 38.4 µM) | 8 µg/mL (≈ 19.2 µM) |  |  | 
8 | (R,E)-3-(7-amino-8-oxo-6,7,8,9-tetrahydro-5H-pyrido[2,3]azepin-3-yl)-N-methyl-N-((3-methylbenzofuran-2-yl)methyl)acrylamide [(R)-11] |  |  |  |  | 0.5 µg/mL | 64 µg/mL | >128 µg/mL | >128 µg/mL | >128 µg/mL | >128 µg/mL | >128 µg/mL | >128 µg/mL | >128 µg/mL | 128 µg/mL | >128 µg/mL | 128 µg/mL | 0.125 µg/mL |  | 89 ± 11 nM
